Assay results from patent US9625448B2, “Double caged GABA compounds, bis-CNB-GABA” (The Trustees of Princeton University, priority 2014, dated 2017).

Assay: Quantum yield of photolysis
Assay type: physicochemical
Conditions: 254 nm light
Method: Quantum yield was a more difficult characteristic to determine. Most published routes of determining quantum yield rely on exposing the compound to a known amount of light and calculating the percent conversion of caged compound to substrate. However, this often requires laser sources and equipment beyond the scope of available facilities. Therefore, it was necessary to develop a way to assess quantum yield with a more practical method. As an alternative, quantum yield was determined by exposing a compound to light alongside a caged compound of known quantum yield. The percent conversion to product of both can be determined, and quantum yield of the unknown caged compound can be calculated using the known quantum yield of the standard.
This method was employed using single-caged CNB-GABA, with a quantum yield of 0.14 (Matsuzaki et al., 2010 Nature Chemical Biology, 6, 255-257, which is incorporated herein by reference as if fully set forth). Referring to this figure, GABA backbone is shown in light gray.
Equimolar amounts of single-caged GABA and bis-CNB-GABA were stirred in separate cuvettes in pH 7.0 phosphate buffer solution and exposed to 254 nm light for 16.5 minutes. An internal standard (1,2-dimethoxyethane) of known amount was then added to each solution, and the moles of GABA released from each compound was determined by ^1HNMR. The peaks corresponding to GABA as well as those from the internal standard were then identified and integrated. From this, moles of GABA and percent conversion were calculated for both bis-CNB-GABA and mono-CNB-GABA. FIG. 34 illustrates NMR data used to determine quantum yield. Referring to FIG. 34, the […] on the top illustrates bis-CNB-GABA before light exposure. Arrows denote methylene peaks of bis-CNB-GABA. Integrated peaks in each spectrum correspond to di-methoxyethane, used as an internal standard. […]
Quantum yield was determined by uncaging bis-CNB-GABA alongside a caged compound of known quantum yield (mono-CNB-GABA, QY=0.16, from Invitrogen). […]

## O=C(CCCNC(C(=O)O)c1ccccc1[N+](=O)[O-])OC(C(=O)O)c1ccccc1[N+](=O)[O-] (stereo not drawn) [bis-CNB-GABA, 2-((4-(Carboxy(2-nitrophenyl)methoxy)-4-oxobutyl)amino)-2-(2-nitrophenyl)acetic acid]
pH 7.0 phosphate buffer, relative to CNB-GABA (0.14)
  quantum yield: 0.07
Relative to mono-O-CNB-GABA
  quantum yield at the N-position: 0.032
  quantum yield at the O-position: 0.15
